In US7045537B1, “Protein structures and protein fibres” (The University of Sussex, priority 1999, dated 2006):
Residues, ends and D or L forms follow the SMILES beside them.

Assays:
Format in all cases: physicochemical
[1] = Circular dichroism (CD) spectroscopy of peptides and peptide mixtures; conditions: individual peptide, 10 mM MOPS pH 7, 5° C.
Protocol: Peptide samples were incubated at 5° C. in 10 mM MOPS (3-(N-Morpholino)propanesulfonic acid), pH 7. Sample concentrations were determined from their UV absorbance at 280 nm (SAF-p1) and 214 nm (SAF-p2). After baseline correction, ellipticities in mdeg were converted to molar ellipticities (deg cm^2 dmol-res^−1) by normalizing for the concentration of peptide bonds. Data were recorded in a cell of 1 mm path length by integrating the signal for 5s (and 1s for the fresh 100 μM peptide mixture) every nm in the range 205–260 nm. CD measurements were made using a JASCO J-715 spectropolarimeter fitted with a Peltier temperature controller.
The CD data shown in FIG. 3 provides spectroscopic evidence for the formation of helical structures by the SAF peptides.
Consistent with our design, neither SAF-p1 nor SAF-p2 was highly structured in aqueous solution at pH 7 and 5° C. (FIG. 3). However, when mixed in equal proportions the circular dichroism (CD) spectrum changed and, moreover, was markedly different from the theoretical spectrum generated by averaging the spectra for the isolated peptides. In particular, the spectrum for the mixture had intense minima at 208 and 222 nm consistent with the formation of α-helical structure, but these features were not as pronounced in the spectra of the individual peptides. This was clear evidence that the two peptides interacted to form an α-helical structure as designed. Furthermore, and as expected for a multimerization event, the magnitude of these spectral changes depended on peptide concentration; a SAF mixture with 10 μM of each peptide, did show a weak signal indicative of some α-helical structure, however, a 100 μM mixture gave a much stronger signal (FIGS. 3A&B).
The shape and intensity of spectra from 100 μM mixtures of the SAF peptides also changed with time (FIG. 3B). […] After incubation of the mixture for 1 hour at 5° C. (“maturation”), however, the signal at 222 nm was more intense, and indicated approximately 75% α-helix, consistent with substantial coiled-coil formation.

[2] = Solubility remarks in peptide design table; conditions: individual peptide
Text: Various peptide monomer units were designed as described above. The monomers and capping peptides (designed to complement the sticky ends of the monomers so as to produce flush, or blunt ends and, so, arrest longitudinal fibre assembly) are set out in Table 1: […]

[3] = Electron microscopy (TEM/SEM) of peptide preparations; conditions: individual peptide
Protocol: To confirm fibre assembly, we used electron microscopy to visualize structures in the peptide preparations directly. For TEM experiments, peptide samples were incubated for 1 h at 5° C. in filtered 10 mM MOPS, pH 7. A drop of peptide solution was applied to a carbon-coated copper specimen grid (Agar Scientific Ltd, Stansted, UK), and dried with filter paper before negative staining with 0.5% aqueous uranyl acetate and then dried at 5° C. A “fresh” SAF peptide mixture was prepared by mixing preincubated solutions of the individual peptides at 200 μM directly on the specimen grid, before drying and negative staining as described. Grids were examined in a Hitachi 7100 TEM at 100 kV and digital images were acquired with a (800×1200 pixel) charge-coupled device camera (Digital Pixel Co. Ltd., Brighton, UK) and analyzed (Kinetic Imaging Ltd., Liverpool, UK).
For scanning electron microscopy (SEM) experiments, negatively-stained specimen grids were sputter-coated with gold and examined in a Leo Stereoscan 420 SEM at 20 kV and with a probe current of 10 pA.

[4] = Linear dichroism (LD) spectroscopy under shear flow; conditions: for LD DATA @ 100 μM (signal): individual peptide
Protocol: Linear dichroism (LD) spectroscopy was also used to test if elongated structures were being formed as designed. Long polymers such as DNA molecules can be oriented by shear flow. This effect can be monitored by LD spectroscopy provided that chromophores also become aligned by the flow (M. Bloemendal (1994) Chem. Soc. Rev. 23, 265; A. Rodger and B. Norden (1997) Oxford Chemistry Masters (Oxford University Press, Oxford), vol. 1).
Peptide samples were prepared for LD as for CD. LD data were collected on samples spinning in a couette flow cell by integrating the signal for 2 s every nm in the range […], using a JASCO J-715 spectropolarimeter. After baseline correction, absorbance was converted to molar extinction coefficient (1 mol-res^−1 cm^−1) by normalizing for the concentration of peptide bonds. A linear correction for a sloping baseline was made to the data from the 100 μM SAF peptide mixture.

Compound	CD DATA @ 10 μM (α-helix) [1]	CD DATA @ 100 μM (α-helix) [1] [%]	EM DATA @ 100 μM (fibres) [3]	LD DATA @ 100 μM (signal) [4]	DESIGN remark on solubility / precipitation [2]	LD signal ([4]; 20 μM)
K ISALKNK NASLKQE IAALEQE IAALEQ (KISALKNKNASLKQEIAALEQEIAALEQ) [SAF-p2A]	unfolded	–	–	–	low solubility	–
tropomyosin [reference compound]	–	–	–	–	–	could be aligned to give a LD signal
CC[C@H](C)[C@H](NC(=O)[C@H](CCC(=O)O)NC(=O)[C@H](CCC(N)=O)NC(=O)[C@H](CCC(=O)O)NC(=O)[C@H](CC(C)C)NC(=O)[C@H](C)NC(=O)[C@H](C)NC(=O)[C@@H](NC(=O)[C@H](CCC(=O)O)NC(=O)[C@H](CCC(N)=O)NC(=O)[C@H](CCCCN)NC(=O)[C@H](CC(C)C)NC(=O)[C@H](Cc1c[nH]cn1)NC(=O)[C@H](C)NC(=O)[C@H](CC(N)=O)NC(=O)[C@H](CCCCN)NC(=O)[C@H](Cc1c[nH]c2ccccc12)NC(=O)[C@H](CCCCN)NC(=O)[C@H](CC(C)C)NC(=O)[C@H](C)NC(=O)[C@H](CCCNC(=N)N)NC(=O)[C@@H](NC(=O)[C@@H](N)CCCCN)[C@@H](C)CC)[C@@H](C)CC)C(=O)N[C@@H](C)C(=O)N[C@@H](C)C(=O)N[C@@H](CC(C)C)C(=O)N[C@@H](CCC(=O)O)C(=O)N[C@@H](CCC(N)=O)C(=O)O [SAF-p2C] (H-KIRALKWKNAHLKQEIAALEQEIAALEQ-OH)	unfolded	~20	thin	–	–	–
CC[C@H](C)[C@H](NC(=O)[C@H](CCC(=O)O)NC(=O)[C@H](CCC(N)=O)NC(=O)[C@H](CCC(=O)O)NC(=O)[C@H](CC(C)C)NC(=O)[C@H](C)NC(=O)[C@H](C)NC(=O)[C@@H](NC(=O)[C@H](CCC(=O)O)NC(=O)[C@H](CCC(N)=O)NC(=O)[C@H](CCCCN)NC(=O)[C@H](CC(C)C)NC(=O)[C@H](Cc1c[nH]cn1)NC(=O)[C@H](C)NC(=O)[C@H](CC(N)=O)NC(=O)[C@H](CCCCN)NC(=O)[C@H](C)NC(=O)[C@H](CCCCN)NC(=O)[C@H](CC(C)C)NC(=O)[C@H](C)NC(=O)[C@H](CCCNC(=N)N)NC(=O)[C@@H](NC(=O)[C@@H](N)CCCCN)[C@@H](C)CC)[C@@H](C)CC)C(=O)N[C@@H](C)C(=O)N[C@@H](C)C(=O)N[C@@H](CC(C)C)C(=O)N[C@@H](CCC(=O)O)C(=O)N[C@@H](CCC(N)=O)C(=O)O [SAF-p2D] (H-KIRALKAKNAHLKQEIAALEQEIAALEQ-OH)	~15%	~45	no	no	–	–

The next lines start with results.

CD DATA @ 10 μM (α-helix) [1]	CD DATA @ 100 μM (α-helix) [1] [%]	EM DATA @ 100 μM (fibres) [3]	LD DATA @ 100 μM (signal) [4]	Compound	DESIGN remark on solubility / precipitation [2]	LD signal ([4]; 20 μM)
~60%	~70	–	–	CC[C@H](C)[C@H](NC(=O)[C@H](CCCCN)NC(C)=O)C(=O)N[C@@H](C)C(=O)N[C@@H](C)C(=O)N[C@@H](CC(C)C)C(=O)N[C@@H](CCCCN)C(=O)N[C@@H](CCC(N)=O)C(=O)N[C@@H](CCCCN)C(=O)N[C@H](C(=O)N[C@@H](C)C(=O)N[C@@H](C)C(=O)N[C@@H](CC(C)C)C(=O)N[C@@H](CCCCN)C(=O)N[C@@H](CCC(N)=O)C(=O)N[C@@H](CCC(=O)O)C(=O)N[C@H](C(=O)N[C@@H](CC(=O)O)C(=O)N[C@@H](C)C(=O)N[C@@H](CC(C)C)C(=O)N[C@@H](CCC(=O)O)C(=O)N[C@@H](Cc1ccc(O)cc1)C(=O)N[C@@H](CCC(=O)O)C(=O)N[C@@H](CC(N)=O)C(=O)N[C@@H](CC(=O)O)C(=O)N[C@@H](C)C(=O)N[C@@H](CC(C)C)C(=O)N[C@@H](CCC(=O)O)C(=O)N[C@@H](CCC(N)=O)C(N)=O)[C@@H](C)CC)[C@@H](C)CC [SAF-p1B, *K IAALKQK IAALKQE IDALEYE NDALEQ*] (Ac-KIAALKQKIAALKQEIDALEYENDALEQ-NH2)	–	–
unfolded	~45	no	–	CC[C@H](C)[C@H](NC(=O)[C@H](CCCCN)NC(=O)[C@H](CCC(N)=O)NC(=O)[C@H](CCCCN)NC(=O)[C@H](CC(C)C)NC(=O)[C@H](C)NC(=O)[C@H](C)NC(=O)[C@@H](NC(=O)[C@@H](N)CCCCN)[C@@H](C)CC)C(=O)N[C@@H](C)C(=O)N[C@@H](C)C(=O)N[C@@H](CC(C)C)C(=O)N[C@@H](CCCCN)C(=O)N[C@@H](CCC(N)=O)C(=O)N[C@@H](CCC(=O)O)C(=O)N[C@H](C(=O)N[C@@H](CC(=O)O)C(=O)N[C@@H](C)C(=O)N[C@@H](CC(C)C)C(=O)N[C@@H](CCC(=O)O)C(=O)N[C@@H](Cc1ccc(O)cc1)C(=O)N[C@@H](CCC(=O)O)C(=O)N[C@@H](CC(N)=O)C(=O)N[C@@H](CC(=O)O)C(=O)N[C@@H](C)C(=O)N[C@@H](CC(C)C)C(=O)N[C@@H](CCC(=O)O)C(=O)N[C@@H](CCC(N)=O)C(=O)O)[C@@H](C)CC [SAF-p1A] (H-KIAALKQKIAALKQEIDALEYENDALEQ-OH)	precipitates	–
~60%	~95	–	–	CC[C@H](C)[C@H](NC(=O)[C@H](CCC(=O)O)NC(=O)[C@H](CCC(N)=O)NC(=O)[C@H](CCC(=O)O)NC(=O)[C@H](CC(C)C)NC(=O)[C@H](C)NC(=O)[C@H](C)NC(=O)[C@@H](NC(=O)[C@H](CCC(=O)O)NC(=O)[C@H](CCC(N)=O)NC(=O)[C@H](CCCCN)NC(=O)[C@H](CC(C)C)NC(=O)[C@H](Cc1c[nH]cn1)NC(=O)[C@H](C)NC(=O)[C@H](CC(N)=O)NC(=O)[C@H](CCCCN)NC(=O)[C@H](Cc1c[nH]c2ccccc12)NC(=O)[C@H](CCCCN)NC(=O)[C@H](CC(C)C)NC(=O)[C@H](C)NC(=O)[C@H](CCCNC(=N)N)NC(=O)[C@@H](NC(=O)[C@H](CCCCN)NC(C)=O)[C@@H](C)CC)[C@@H](C)CC)C(=O)N[C@@H](C)C(=O)N[C@@H](C)C(=O)N[C@@H](CC(C)C)C(=O)N[C@@H](CCC(=O)O)C(=O)N[C@@H](CCC(N)=O)C(N)=O [SAF-p2B, *K IRALKWK NAHLKQE IAALEQE IAALEQ*] (Ac-KIRALKWKNAHLKQEIAALEQEIAALEQ-NH2)	–	–
unfolded	~20	no	no	CC[C@H](C)[C@H](NC(=O)[C@H](CCCCN)NC(=O)[C@H](CCC(N)=O)NC(=O)[C@H](CCCCN)NC(=O)[C@H](CC(C)C)NC(=O)[C@H](C)NC(=O)[C@H](C)NC(=O)[C@@H](NC(=O)[C@@H](N)CCCCN)[C@@H](C)CC)C(=O)N[C@@H](C)C(=O)N[C@@H](CO)C(=O)N[C@@H](CC(C)C)C(=O)N[C@@H](CCCCN)C(=O)N[C@@H](CCC(N)=O)C(=O)N[C@@H](CCC(=O)O)C(=O)N[C@H](C(=O)N[C@@H](CC(=O)O)C(=O)N[C@@H](C)C(=O)N[C@@H](CC(C)C)C(=O)N[C@@H](CCC(=O)O)C(=O)N[C@@H](Cc1ccc(O)cc1)C(=O)N[C@@H](CCC(=O)O)C(=O)N[C@@H](CC(N)=O)C(=O)N[C@@H](CC(=O)O)C(=O)N[C@@H](C)C(=O)N[C@@H](CC(C)C)C(=O)N[C@@H](CCC(=O)O)C(=O)N[C@@H](CCC(N)=O)C(=O)O)[C@@H](C)CC [SAF-p1C] (H-KIAALKQKIASLKQEIDALEYENDALEQ-OH)	–	–
